# Measured values reported in patent US20130090329A1, “Methods and Compositions for the Treatment of Psychotic Disorders Through the Identification of the Olanzapine Poor Response Predictor Genetic Signature” (SUREGENE, LLC, priority 2011, published 2013).
# Marks after values point to notes of the source that are not given here.
# Legend:
# [1] = tested on: patients suffering from schizophrenia and related disorders; test: CATIE study: worsening of symptoms (LOCF delta PANSS ≧0%) by OPRP status; format: in vivo, human; conditions: for Worsening: delta PANSS ≧0%
# Description: (§1) A total of 738 subjects consented to provide DNA for genetic study. […] Only retrospective genetic analyses, judged to be exempt from human studies requirements by an IRB, were conducted in the current study. For the genetic analyses presented herein, the inventors combined and evaluated drug response data for both Phase I and Phase IB of the CATIE study. All tested patients were studied using well established clinical endpoints comparing baseline, intermediate, and last observation carried forward (LOCF) for the PANSS scores using CATIE data. LOCF analysis is a commonly used clinical endpoint for clinical trials for neuropsychiatric drugs, with particular changes in PANSS scores being used to indicate clinically significant response (Leucht et al., 2009).
# The inventors also examined the impact of the OPRP status on whether patients' symptoms actually got worse when treated with olanzapine. This is an important safety consideration for antipsychotic drugs response, and failure of a drug to display the desired clinical response on a specific subset of patients could impact the drug label, being contraindicated for a particular subset of patients (see Example 5: “Risk Management Involving the OPRP Genetic Test). […]
# [2] = tested on: patients suffering from schizophrenia and related disorders; test: CATIE study: percent change in total PANSS from baseline to LOCF, segmented by OPRP genetic signature status; format: in vivo, human; conditions: for Mean difference between olanzapine and labelled atypical antipsychotic, CATIE OPRP−: OPRP negative subjects; for Mean difference between olanzapine and labelled atypical antipsychotic, CATIE OPRP− / Mean difference between olanzapine and labelled atypical antipsychotic, CATIE unsegemented: delta PANSS, negative = olanzapine superior
# Text: Genotype and phenotype data for the CATIE trial were recently made available to qualified researchers through the NIMH Center for Collaborative Genetic Studies on Mental Disorders. The sample consisted of a total of 738 patients. For the present study, the inventors assigned OPRP status to 628 subjects, including 411 subjects of self-reported European ancestry and 217 subjects of self-reported African ancestry. Further details on the patient population are described in the study by Sullivan and coworkers (Sullivan et al., 2008). The CATIE SNP genotype data evaluated included a total of 492,900 SNPs located throughout the genome.
# The design of the CATIE study has been described in detail by others (Lieberman et al., 2005; Stroup et al., 2003). […] Subjects that failed Phase I treatment with the typical antipsychotic perphenazine were treated differently than those subjects that failed phase I treatment with an atypical antipsychotic. Instead of entering into Phase II of the trial, subjects who switched from perphenazine entered Phase IB. […] Subjects who failed Phase IB then entered Phase II.
# as §1
# Using the clinical data from the CAIE trial, the inventors derived several different metrics used for quantifying response in clinical trials of antipsychotic medications. The most commonly used psychometric instrument is the Positive and Negative Syndrome Scale (PANSS), a 30-item semi-quantitative instrument scored by clinical professionals (Kay et al., 1987). The greater the decrease in PANSS score, the better the clinical response. The most direct measure of clinical response is absolute change in PANSS score. In addition to absolute change, the improvement is often reported as a percentage change from baseline PANSS score.
# To examine the relationship of genotypes to drug response the inventors used the publically available PLINK software (Purcell et al., 2007; available on the world wide web at pngu.mgh.harvard.edu/purcell/plink/) and Helix tree (Version 6.4.1; Golden Helix, Bozeman, Mont.). The inventors used Last observation Carry Forward (LOCF) delta PANSS values as a measure of response to antipsychotic treatment. […] The inventors refined the test further by conducting association analysis on using only those subjects that comprised the TT genotype of rs11960832.
# As mentioned previously, the mean change in absolute or percent PANSS provides an important measure of efficacy in patients undergoing antipsychotic treatments. Indeed, many pivotal trials in the psychosis field used absolute and/or percentage change in PANSS Score as the primary endpoint (Leucht et al., 2009).
# [3] = among antipsychotic medications; cited from earlier work
# [4] = tested on: patients suffering from schizophrenia and related disorders; test: CATIE study: categorical responders (change in total PANSS ≦−10%, LOCF) by OPRP status; format: in vivo, human; conditions: for Responders: change in total PANSS ≦−10%
# Description: A total of 738 subjects consented to provide DNA for genetic study. Details regarding SNP genotyping and quality control have been recently published (Sullivan et al., 2008). Only retrospective genetic analyses, judged to be exempt from human studies requirements by an IRB, were conducted in the current study. For the genetic analyses presented herein, the inventors combined and evaluated drug response data for both Phase I and Phase IB of the CATIE study. All tested patients were studied using well established clinical endpoints comparing baseline, intermediate, and last observation carried forward (LOCF) for the PANSS scores using CATIE data. LOCF analysis is a commonly used clinical endpoint for clinical trials for neuropsychiatric drugs, with particular changes in PANSS scores being used to indicate clinically significant response (Leucht et al., 2009). […] As described above CATIE patients were studied using well established clinical endpoints comparing baseline, intermediate, and last observation carried forward (LOCF) for the PANSS scores.
# psychopathology (PANSS) [5] = conditions: meta-analysis, population not segmented by OPRP; negative = greater reduction in PANSS; cited from earlier work
# psychopathology (PANSS) [6] = conditions: weighted mean difference in PANSS score (absolute); negative = olanzapine superior; cited from earlier work
# psychopathology = conditions: meta-analysis, Davis et al. (2003); cited from earlier work
# [7] = Caucasian patients, OPRP Negative, LOCF
# [8] = Caucasian patients, OPRP Negative
# [9] = Caucasian patients, OPRP Positive, LOCF
# [10] = Caucasian patients, OPRP Positive
# [11] = Caucasian subjects, OPRP Negative
# [12] = Caucasian subjects, OPRP Positive
# [13] = OPRP Negative subjects, CATIE Phase I and IB, more negative = greater improvement
# [14] = OPRP Positive subjects, CATIE Phase I and IB, more negative = greater improvement
# [15] = comparator = OPRP positive subjects treated with the labelled drug, positive = poorer response to olanzapine
# [16] = olanzapine OPRP positive versus labelled drug OPRP positive, CATIE
Structure (SMILES),"Number of individuals with delta PANSS ≦0% (non-worsening) [1, 7]","Number of individuals with delta PANSS ≧0% (worsening symptoms) [1, 7]","Number of individuals with delta PANSS ≦0% (non-worsening) ([1]; OPRP Negative, LOCF)","Number of individuals with delta PANSS ≧0% (worsening symptoms) ([1]; OPRP Negative, LOCF)","Worsening ([1]; OPRP Negative, LOCF)","Number of individuals with delta PANSS ≦0% (non-worsening) ([1]; OPRP Positive, LOCF)","Number of individuals with delta PANSS ≧0% (worsening symptoms) ([1]; OPRP Positive, LOCF)","Worsening ([1]; OPRP Positive, LOCF)","DELTA PANSS % (mean change in PANSS score from baseline to LOCF) [2, 13]","DELTA PANSS % (mean change in PANSS score from baseline to LOCF) [2, 14]",Number of individuals with change in total PANSS ≦−10% (responders) ([4]; OPRP Negative),Number of individuals with change in total PANSS ≧−10% (non-responders) ([4]; OPRP Negative),Responders ([4]; OPRP Negative),Number of individuals with change in total PANSS ≦−10% (responders) ([4]; OPRP Positive),Number of individuals with change in total PANSS ≧−10% (non-responders) ([4]; OPRP Positive),Responders ([4]; OPRP Positive),"Mean difference in delta PANSS: olanzapine-treated OPRP positive group minus comparator group [2, 15]","Effect size (mean difference / standard deviation) [2, 16]",Effect Size vs. Placebo (psychopathology (PANSS) [5]),"Mean difference between olanzapine and labelled atypical antipsychotic, Meta-analysis (psychopathology (PANSS) [6])",other results
CN1CCN(C2=Nc3cc(Cl)ccc3Nc3ccccc32)CC1 [Clozapine],25,9,–,–,–,–,–,–,–,–,–,–,–,–,–,–,–,–,–,–,"Worsening [1, 8]: 26%*; Number of individuals with delta PANSS ≦0% (non-worsening) [1, 9]: 0; Number of individuals with delta PANSS ≧0% (worsening symptoms) [1, 9]: 2; Worsening [1, 10]: 100%; DELTA PANSS % (mean change in PANSS score from baseline to LOCF) [2, 11]: −13.1%; DELTA PANSS % (mean change in PANSS score from baseline to LOCF) [2, 12]: 28%; Incidence of metabolic side-effects [3]: greatest incidence of metabolic side-effects"
Cc1cc2c(s1)Nc1ccccc1N=C2N1CCN(C)CC1 [Olanzapine],–,–,113,26,19%*,8,18,69%,−11.6%,4.3%,73,66,53%*,1,25,4%,–,–,–,–,"Effect size, olanzapine-treated OPRP positive patients compared to various other OPRP-drug combinations ([2]; CATIE study, range over comparisons): 0.2 to 1.0; Mean difference in delta PANSS: olanzapine-treated OPRP positive group minus comparator group ([2]; comparator = olanzapine-treated OPRP negative subjects): 15.9; Effect size (mean difference / standard deviation) ([2]; olanzapine OPRP positive versus olanzapine OPRP negative, CATIE): 1.0^a; Effect size (mean difference / standard deviation) ([2]; olanzapine OPRP positive versus olanzapine OPRP negative, CATIE, listed as olanzapine): 1.0; Incidence of metabolic side-effects [3]: greatest incidence of metabolic side-effects"
OCCN1CCN(CCCN2c3ccccc3Sc3ccc(Cl)cc32)CC1 [Perphenazine],–,–,65,45,41%^+++,9,3,25%^,−4.2^+++ %,−7.7^ %,39,71,35%^+,5,7,42%^^,12,0.7,–,–,–
OCCOCCN1CCN(C2=Nc3ccccc3Sc3ccccc32)CC1 [Quetiapine],85,62,95,62,42%^+++,9,9,50%,−3.2^++++ %,−1.2%,48,99,33%^+++,4,14,22%,5.5,0.3^b,−0.42,−3.7,"Worsening [1, 8]: 42%*; Number of individuals with delta PANSS ≦0% (non-worsening) [1, 9]: 2; Number of individuals with delta PANSS ≧0% (worsening symptoms) [1, 9]: 7; Worsening [1, 10]: 78%; Effect Size vs. FGA (first generation antipsychotics) (psychopathology): 0.01; Response of OPRP positive group compared with OPRP negative group (percent change in PANSS) ([2]; Caucasian subjects, CATIE): responded worse; DELTA PANSS % (mean change in PANSS score from baseline to LOCF) [2, 11]: −0.6%; DELTA PANSS % (mean change in PANSS score from baseline to LOCF) [2, 12]: 12%; Mean difference between olanzapine and labelled atypical antipsychotic, CATIE OPRP− [2]: −8.4; Mean difference between olanzapine and labelled atypical antipsychotic, CATIE unsegemented [2]: −6.2; Effect size (mean difference / standard deviation) ([2]; olanzapine OPRP positive versus labelled drug OPRP positive, CATIE, listed as quetiapine): 0.3"
Cc1nc2n(c(=O)c1CCN1CCC(c3noc4cc(F)ccc34)CC1)CCCC2 [Risperidone],–,–,91,55,38%^+++,13,7,35%^,–,–,55,91,38%^+,7,12,35%^,–,–,−0.59,−1.9,–
O=C1Cc2cc(CCN3CCN(c4nsc5ccccc45)CC3)c(Cl)cc2N1 [Ziprasidone],–,–,35,34,49%^++++,7,4,36%,−1.5^++++ %,−0.5%,16,53,23%^++++,2,9,18%,4.8,0.2^b,−0.48,−8.3,"Effect Size vs. FGA (first generation antipsychotics) (psychopathology): −0.04; Mean difference between olanzapine and labelled atypical antipsychotic, CATIE OPRP− [2]: −10.1; Mean difference between olanzapine and labelled atypical antipsychotic, CATIE unsegemented [2]: −4.9; Effect size (mean difference / standard deviation) ([2]; olanzapine OPRP positive versus labelled drug OPRP positive, CATIE, listed as ziprasidone): 0.2"
